Data: patent US20170291905A1, “ARGININE […] INHIBITORS AND USES THEREOF” (Epizyme, Inc., priority 2014, published 2017)
Structures can show the parent of a compound that is named as a salt.

Biological target: T1, full-length human PRMT1 isoform 1 (GST-tagged) (Homo sapiens, UniProt Q99873)
T1 construct: GST-tagged PRMT1 was eluted with 50 mM Tris, 2 mM glutathione, pH 7.8, dialysed in buffer A and concentrated; made in house; host or cells: High Five insect cells (baculovirus)
Assay: PRMT1 biochemical assay (3H-SAM Flashplate, histone H4 36-50 peptide)
Conditions: 0.5 nM PRMT1, 30 min preincubation, 20 nM peptide
From the text: S-adenosylmethionine (SAM), S-adenosylhomocysteine (SAH), bicine, Tween20, dimethylsulfoxide (DMSO), bovine skin gelatin (BSG), and Tris(2-carboxyethyl)phosphine hydrochloride solution (TCEP) were purchased from Sigma-Aldrich at the highest level of purity possible. ^3H-SAM was purchase from American Radiolabeled Chemicals with a specific activity of 80 Ci/mmol. 384-well streptavidin Flashplates were purchased from PerkinElmer.
Peptide representative of human histone H4 residues 36-50 was synthesized with an N-terminal linker-affinity tag motif and a C-terminal amide cap by 21st Century Biochemicals. The peptide was purified by high-performance liquid chromatography (HPLC) to greater than 95% purity and confirmed by liquid chromatography mass spectrometry (LC-MS). The sequence was Biot-Ahx-[…]-amide (SEQ ID NO.:1).
Full-length human PRMT1 isoform 1 (NM_001536.5) transcript clone was amplified from an HEK 293 cDNA library, incorporating flanking 5′ sequence encoding a FLAG tag ([…]) (SEQ ID NO.:2) fused directly to Met 1 of PRMT1. The amplified gene was subcloned into pFastBacI (Life Technologies) modified to encode an N-terminal GST tag and a TEV cleavage sequence
Recombinant baculovirus were generated according to Bac-to-Bac kit instructions (Life Technologies). Protein over-expression was accomplished by infecting exponentially growing High Five insect cell culture at 1.5×10^6 cell/ml with 1:100 ratio of virus. Infections were carried out at 27° C. for 48 hours, harvested by centrifugation, and stored at −80° C. for purification.
GST-tagged PRMT1 was eluted with 50 mM Tris, 2 mM glutathione, pH 7.8, dialysed in buffer A and concentrated to 1 mg/mL. The purity of recovered protein was 73%. Reference: Wasilko, D. J. and S. E. Lee: “TIPS: titerless infected-cells preservation and scale-up” Bioprocess J., 5 (2006), pp. 29-32.
General Procedure for PRMT1 Enzyme Assays on Peptide Substrates.
The assays were all performed in a buffer consisting of 20 mM Bicine (pH=7.6), 1 mM TCEP, 0.005% BSG, and 0.002% Tween 20, prepared on the day of use. Compounds in 100% DMSO (1 ul) were spotted into a polypropylene 384-well V-bottom plates (Greiner) using a Platemate Plus outfitted with a 384-channel head (Thermo Scientific). DMSO (1 ul) was added to Columns 11, 12, 23, 24, rows A-H for the maximum signal control and 1 ul of SAH, a known product and inhibitor of PRMT1, was added to columns 11, 12, 23, 24, rows I-P for the minimum signal control. A cocktail (40 ul) containing the PRMT1 enzyme was added by Multidrop Combi (Thermo-Fisher). The compounds were allowed to incubate with PRMT1 for 30 min at room temperature, then a cocktail (10 ul) containing SAM and peptide was added to initiate the reaction (final volume=51 ul). The final concentrations of the components were as follows: PRMT1 was 0.5 nM, ^3H-SAM was 200 nM, non-radiolabeled SAM was 1.5 uM, peptide was 20 nM, SAH in the minimum signal control wells was 1 mM, and the DMSO concentration was 2%. The assays were stopped by the addition of non-radiolabeled SAM (10 ul) to a final concentration of 300 uM, which dilutes the ^3H-SAM to a level where its incorporation into the peptide substrate is no longer detectable. 50 ul of the reaction in the 384-well polypropylene plate was then transferred to a 384-well Flashplate and the biotinylated peptides were allowed to bind to the streptavidin surface for at least 1 hour before being washed once with 0.1% Tween20 in a Biotek ELx405 plate washer. The plates were then read in a PerkinElmer TopCount plate reader to measure the quantity of ^3H-labeled peptide bound to the Flashplate surface, measured as disintegrations per minute (dpm) or alternatively, referred to as counts per minute (cpm).
Where dpm=disintegrations per minute, cmpd=signal in assay well, and min and max are the respective minimum and maximum signal controls. […]

T1 sequence (Q99873 with tags, fused parts or gaps): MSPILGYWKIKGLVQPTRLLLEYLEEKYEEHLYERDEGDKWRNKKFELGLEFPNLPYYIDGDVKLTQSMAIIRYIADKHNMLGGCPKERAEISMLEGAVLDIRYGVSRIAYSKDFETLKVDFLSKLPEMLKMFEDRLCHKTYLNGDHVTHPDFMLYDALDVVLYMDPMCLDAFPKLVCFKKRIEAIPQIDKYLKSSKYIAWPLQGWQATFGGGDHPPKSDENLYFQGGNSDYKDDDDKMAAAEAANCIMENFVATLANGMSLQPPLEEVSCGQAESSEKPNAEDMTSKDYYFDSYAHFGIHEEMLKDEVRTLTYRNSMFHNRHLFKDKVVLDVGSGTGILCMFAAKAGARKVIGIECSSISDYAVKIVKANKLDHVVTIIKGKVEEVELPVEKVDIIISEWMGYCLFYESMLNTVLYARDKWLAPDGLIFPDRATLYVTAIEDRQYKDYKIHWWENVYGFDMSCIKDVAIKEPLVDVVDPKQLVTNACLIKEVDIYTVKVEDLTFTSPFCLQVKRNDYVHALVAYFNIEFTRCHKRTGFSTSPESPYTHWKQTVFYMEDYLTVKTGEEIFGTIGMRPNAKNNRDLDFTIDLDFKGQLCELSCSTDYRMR

CNCCN(C)Cc1c[nH]nc1C1CCC(OCCCOC)C2(CCCC2)C1 (mixture of isomers) [compound 19, N1-((3-(10-(3-methoxypropoxy)spiro[4.5]decan-7-yl)-1H-pyrazol-4-yl)methyl)-N1,N2-dimethylethane-1,2-diamine dihydrochloride]
IC50: 11.1 nM

CNCCN(C)Cc1c[nH]nc1[C@@H]1CC[C@@H](OCCCOC)C2(CCCC2)C1 (racemic) [compound 26, N1-((3-((7R,10R)-10-(3-methoxypropoxy)spiro[4.5]decan-7-yl)-1H-pyrazol-4-yl)methyl)-N1,N2-dimethylethane-1,2-diamine]
IC50: 14.3 nM

CNCCN(C)Cc1c[nH]nc1[C@@H]1CC[C@H](OCCCOC)C2(CCCC2)C1 (racemic) [compound 27, N1-((3-((7R,10S)-10-(3-methoxypropoxy)spiro[4.5]decan-7-yl)-1H-pyrazol-4-yl)methyl)-N1,N2-dimethylethane-1,2-diamine]
IC50: 6.58 nM

CNCCN(C)Cc1c[nH]nc1C1CC(COCC2CC2)CC(COCC2CC2)C1 (centres unmarked) [compound 2]
IC50: 69.2 nM

CNCCN(C)Cc1c[nH]nc1[C@H]1CC[C@@]2(CCCCO2)CC1 [compound 3]
IC50: 13.6 nM

CNCCN(C)Cc1c[nH]nc1[C@H]1CC[C@]2(CCCOC2)CC1 [compound 4, N1-((3-((6s,9s)-2-oxaspiro[5.5]undecan-9-yl)-1H-pyrazol-4-yl)methyl)-N1,N2-dimethylethane-1,2-diamine]
IC50: 9.43 nM

CNCCN(C)Cc1c[nH]nc1[C@H]1CC[C@@]2(CCCOC2)CC1 [compound 5, N1-((3-((6r,9r)-2-oxaspiro[5.5]undecan-9-yl)-1H-pyrazol-4-yl)methyl)-N1,N2-dimethylethane-1,2-diamine]
IC50: 11.7 nM

CNCCN(C)Cc1c[nH]nc1C1CCC(COCC(C)C)(COCC(C)C)CC1 [compound 6]
IC50: 16.7 nM

CNCCN(C)Cc1c[nH]nc1C1CCC2(CCC(OC)CC2)CC1 (centres unmarked) [compound 9, N1-((3-(9-methoxyspiro[5.5]undecan-3-yl)-1H-pyrazol-4-yl)methyl)-N1,N2-dimethylethane-1,2-diamine]
IC50: 8.7 nM

CNCCN(C)Cc1c[nH]nc1[C@H]1CC[C@]2(CCN(CCC(C)C)C2=O)CC1 [compound 10]
IC50: 55 nM

CNCCN(C)Cc1c[nH]nc1[C@H]1CC[C@@]2(CCN(CCC(C)C)C2=O)CC1 [compound 11, (5r,8r)-2-isopentyl-8-(4-((methyl(2-(methylamino)ethyl)amino)methyl)-1H-pyrazol-3-yl)-2-azaspiro[4.5]decan-1-one]
IC50: 6.55 nM

CNCCN(C)Cc1c[nH]nc1C1C[C@@H](C(=O)N(C)CC(C)C)C(C)(C)[C@H](C(=O)N(C)CC(C)C)C1 (some centres unmarked) [compound 12]
IC50: > 10000 nM

CNCCN(C)Cc1c[nH]nc1C1C[C@H](C(=O)NCCOC)C(C)(C)[C@H](C(=O)NCCOC)C1 (some centres unmarked) [compound 13]
IC50: > 10000 nM

CCN(C)C(=O)C1CC(c2n[nH]cc2CN(C)CCNC)CC(C(=O)NCCC(C)C)C1(C)C (centres unmarked) [compound 14, N1-ethyl-N3-isopentyl-N1,2,2-trimethyl-5-(4-((methyl(2-(methylamino)ethyl)amino)methyl)-1H-pyrazol-3-yl)cyclohexane-1,3-dicarboxamide]
IC50: > 10000 nM

CNCCN(C)Cc1c[nH]nc1C1=CCC(CF)(CF)CC1 [compound 15, N-((3-(4,4-bis(fluoromethyl)cyclohex-1-en-1-yl)-1H-pyrazol-4-yl)methyl)-N1,N2-dimethylethane-1,2-diamine]
IC50: 5.6 nM

CNCCN(C)Cc1c[nH]nc1C1=CCC(COCC(F)(F)F)CC1 (centres unmarked) [compound 16, N1,N2-dimethyl-N1-((3-(4-((2,2,2-trifluoroethoxy)methyl)cyclohex-1-en-1-yl)-1H-pyrazol-4-yl)methyl)ethane-1,2-diamine]
IC50: 11.2 nM

CNCCN(C)Cc1c[nH]nc1C1CCC(C)(C)[C@H](OCC(C)C)C1 (stereo partly drawn) [compound 20, ({3-[(3R)-4,4-dimethyl-3-(2-methylpropoxy)cyclohexyl]-1H-pyrazol-4-yl}methyl)(methyl)[2-(methylamino)ethyl]amine]
IC50: 11 nM

CCC1CC(c2n[nH]cc2CN(C)CCNC)CC(C(=O)NCCOC)C1(C)C (centres unmarked) [compound 21, 3-ethyl-N-(2-methoxyethyl)-2,2-dimethyl-5-[4-([methyl[2-(methylamino)ethyl]amino]methyl)-1H-pyrazol-3-yl]cyclohexane-1-carboxamide dihydrochloride]
IC50: 246 nM

CCC1(CC)CC2(CCC(c3n[nH]cc3CN(C)CCNC)CC2)N(C)C1=O (centres unmarked) [compound 22, 3,3-diethyl-1-methyl-8-(4-((methyl(2-(methylamino)ethyl)amino)methyl)-1H-pyrazol-3-yl)-1-azaspiro[4.5]decan-2-one]
IC50: 13.1 nM

CNCCN(C)Cc1c[nH]nc1[C@H]1CC[C@@H](COCC(F)(F)F)CC1 [compound 23, N1,N2-dimethyl-N1-((3-((1s,4s)-4-((2,2,2-trifluoroethoxy)methyl)cyclohexyl)-1H-pyrazol-4-yl)methyl)ethane-1,2-diamine]
IC50: 50.8 nM

CNCCN(C)Cc1c[nH]nc1[C@H]1CC[C@H](COCC(F)(F)F)CC1 [compound 24, N1,N2-dimethyl-N1-((3-((1r,4r)-4-((2,2,2-trifluoroethoxy)methyl)cyclohexyl)-1H-pyrazol-4-yl)methyl)ethane-1,2-diamine]
IC50: 12.4 nM

CNCCN(C)Cc1cn(C)nc1C1CCC(C)(C)[C@@H](C(=O)NCC(C)C)C1 (some centres unmarked) [compound 25]
IC50: 702 nM

CNCCNCc1c[nH]nc1[C@H]1CC[C@@]2(CC1)CC(C)(C)CO2 [compound 28, N1-((3-((5s,8s)-3,3-dimethyl-1-oxaspiro[4.5]decan-8-yl)-1H-pyrazol-4-yl)methyl)-N2-methylethane-1,2-diamine]
IC50: 13.2 nM

CNCCNCc1c[nH]nc1[C@H]1CC[C@]2(CC1)CC(C)(C)CO2 [compound 29, N1-((3-((5r,8r)-3,3-dimethyl-1-oxaspiro[4.5]decan-8-yl)-1H-pyrazol-4-yl)methyl)-N2-methylethane-1,2-diamine]
IC50: 193 nM

CNCCN(C)Cc1c[nH]nc1C1CCC(C)(C)[C@H](COCCCOC)C1 (stereo partly drawn) [compound 30, {2-[({3-[(3R)-3-[(3-methoxypropoxy)methyl]-4,4-dimethylcyclohexyl]-1H-pyrazol-4-yl}methyl)(methyl)amino]ethyl}(methyl)amine]
IC50: 21 nM

CCOC[C@@H]1CC(c2n[nH]cc2CN(C)CCNC)CCC1(C)C (stereo partly drawn) [compound 31, {2-[({3-[(3R)-3-(ethoxymethyl)-4,4-dimethylcyclohexyl]-1H-pyrazol-4-yl}methyl)(methyl)amino]ethyl}(methyl)amine]
IC50: 25 nM

CNCCN(C)Cc1c[nH]nc1C1CCC(C)(C)[C@H](CO)C1 (stereo partly drawn) [compound 32, [(1R)-2,2-dimethyl-5-[4-({methyl[2-(methylamino)ethyl]amino}methyl)-1H-pyrazol-3-yl]cyclohexyl]methanol]
IC50: 22.1 nM

CCC1(CC)C[C@]2(CC[C@H](c3n[nH]cc3CN(C)CCNC)CC2)OC1=O [compound 33, (5s,8s)-3,3-diethyl-8-(4-((methyl(2-(methylamino)ethyl)amino)methyl)-1H-pyrazol-3-yl)-1-oxaspiro[4.5]decan-2-one]
IC50: 13.2 nM

CCC1(CC)C[C@]2(CC[C@@H](c3n[nH]cc3CN(C)CCNC)CC2)OC1=O [compound 34, (5r,8r)-3,3-diethyl-8-(4-((methyl(2-(methylamino)ethyl)amino)methyl)-1H-pyrazol-3-yl)-1-oxaspiro[4.5]decan-2-one]
IC50: 15.2 nM
